Measurements published in PMC12183592, “Discovery of Iboga-Derived Ligands for the Sigma‑2 Receptor” (ACS Bio & Med Chem Au, 2025).

What was measured:
[1] = target: D2 (Homo sapiens, UniProt P14416); assay: PDSP secondary radioligand displacement assay, Ki; type: binding
Excerpt: (§1) Thirteen analogs, in addition to ibogamine itself (Figure ), were submitted to the PDSP for biological evaluation. Primary radioligand displacement assays were run on 44 neurotransmitter receptors and transporters to give a snapshot of the receptor affinity for each ligand.

[2] = target: D3 (Homo sapiens, UniProt P35462); assay: PDSP secondary radioligand displacement assay, Ki; type: binding
Excerpt: as §1

[3] = target: H1 (Homo sapiens, UniProt P35367); assay: PDSP secondary radioligand displacement assay, Ki; type: binding
Chain of H1 (P35367 whole entry): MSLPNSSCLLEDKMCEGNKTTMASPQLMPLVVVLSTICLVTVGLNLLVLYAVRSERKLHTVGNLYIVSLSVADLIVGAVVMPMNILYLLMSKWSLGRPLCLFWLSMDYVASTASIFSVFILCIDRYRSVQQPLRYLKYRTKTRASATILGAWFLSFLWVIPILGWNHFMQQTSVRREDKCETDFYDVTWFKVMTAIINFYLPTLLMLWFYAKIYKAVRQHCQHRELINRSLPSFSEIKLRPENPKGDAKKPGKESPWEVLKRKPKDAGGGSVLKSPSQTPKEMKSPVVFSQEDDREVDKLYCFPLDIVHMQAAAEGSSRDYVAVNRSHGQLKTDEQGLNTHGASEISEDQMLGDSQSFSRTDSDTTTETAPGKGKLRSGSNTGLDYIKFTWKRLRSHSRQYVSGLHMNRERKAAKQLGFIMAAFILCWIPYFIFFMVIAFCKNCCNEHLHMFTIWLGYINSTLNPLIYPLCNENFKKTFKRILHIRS
Excerpt: as §1

[4] = target: MOR (Homo sapiens, UniProt P35372); assay: PDSP secondary radioligand displacement assay, Ki; type: binding; settings: supplement xlsx
Chain of MOR (P35372 whole entry): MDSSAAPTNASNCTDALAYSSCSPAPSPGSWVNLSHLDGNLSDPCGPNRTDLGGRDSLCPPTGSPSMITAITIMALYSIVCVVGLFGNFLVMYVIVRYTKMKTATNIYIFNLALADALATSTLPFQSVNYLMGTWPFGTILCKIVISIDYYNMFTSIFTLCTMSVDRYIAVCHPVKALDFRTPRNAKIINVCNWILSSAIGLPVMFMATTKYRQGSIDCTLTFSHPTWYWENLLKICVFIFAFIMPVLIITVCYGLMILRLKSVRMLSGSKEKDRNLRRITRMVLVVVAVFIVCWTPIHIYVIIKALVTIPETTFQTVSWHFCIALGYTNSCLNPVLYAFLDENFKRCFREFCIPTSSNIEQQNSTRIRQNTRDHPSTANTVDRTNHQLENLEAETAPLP

[5] = target: 5-HT1D (Homo sapiens, UniProt P28221); assay: PDSP secondary radioligand displacement assay, Ki; type: binding; settings: supplement xlsx
Chain of 5-HT1D (P28221 whole entry, species assumed): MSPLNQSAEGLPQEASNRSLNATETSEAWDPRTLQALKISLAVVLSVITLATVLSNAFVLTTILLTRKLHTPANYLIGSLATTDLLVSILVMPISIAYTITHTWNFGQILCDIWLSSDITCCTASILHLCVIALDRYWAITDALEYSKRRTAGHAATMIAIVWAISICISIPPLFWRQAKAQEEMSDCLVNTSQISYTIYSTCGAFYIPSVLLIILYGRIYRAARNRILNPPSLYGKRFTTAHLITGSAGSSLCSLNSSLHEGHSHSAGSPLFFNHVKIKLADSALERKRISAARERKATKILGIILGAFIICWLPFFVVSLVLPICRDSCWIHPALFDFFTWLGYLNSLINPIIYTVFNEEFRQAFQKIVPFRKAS
Excerpt: as §1

[6] = target: 5-HT3 (Homo sapiens, UniProt P46098); assay: PDSP secondary radioligand displacement assay, Ki; type: binding; settings: supplement xlsx
Excerpt: as §1

[7] = target: T1, Alpha2A (Homo sapiens, UniProt P08913); assay: PDSP secondary radioligand displacement assay, Ki; type: binding
T1 sequence (P08913 1-465): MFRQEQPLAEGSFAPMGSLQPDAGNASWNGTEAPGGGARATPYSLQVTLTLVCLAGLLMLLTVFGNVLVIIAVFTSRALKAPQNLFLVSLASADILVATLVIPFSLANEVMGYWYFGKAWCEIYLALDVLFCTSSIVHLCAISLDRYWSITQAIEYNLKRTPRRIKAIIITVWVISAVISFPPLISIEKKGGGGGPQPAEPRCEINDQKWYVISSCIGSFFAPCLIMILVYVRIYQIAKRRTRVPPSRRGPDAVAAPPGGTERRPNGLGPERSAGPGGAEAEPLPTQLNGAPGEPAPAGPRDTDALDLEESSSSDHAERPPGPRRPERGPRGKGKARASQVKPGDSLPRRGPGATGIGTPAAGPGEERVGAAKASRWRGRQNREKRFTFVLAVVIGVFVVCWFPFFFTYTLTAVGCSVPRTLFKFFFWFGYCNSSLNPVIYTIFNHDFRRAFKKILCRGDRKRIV
Excerpt: as §1

[8] = target: T2, Alpha2B (Homo sapiens, UniProt P18089); assay: PDSP secondary radioligand displacement assay, Ki; type: binding; settings: supplement xlsx
T2 sequence (P18089 1-450): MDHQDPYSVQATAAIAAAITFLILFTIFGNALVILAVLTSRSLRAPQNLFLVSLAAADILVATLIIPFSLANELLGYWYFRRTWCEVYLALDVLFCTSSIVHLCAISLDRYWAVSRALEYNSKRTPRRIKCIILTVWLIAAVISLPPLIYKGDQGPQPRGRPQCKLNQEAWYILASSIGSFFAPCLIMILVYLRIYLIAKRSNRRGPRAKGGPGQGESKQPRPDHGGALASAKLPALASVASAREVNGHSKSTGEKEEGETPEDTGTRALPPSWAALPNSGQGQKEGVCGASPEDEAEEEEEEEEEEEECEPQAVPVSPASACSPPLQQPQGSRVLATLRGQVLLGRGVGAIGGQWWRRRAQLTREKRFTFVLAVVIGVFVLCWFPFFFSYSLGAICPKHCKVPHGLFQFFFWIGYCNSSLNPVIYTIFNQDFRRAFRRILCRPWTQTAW
Excerpt: as §1

[9] = target: T3, Alpha2C (Homo sapiens, UniProt P18825); assay: PDSP secondary radioligand displacement assay, Ki; type: binding; settings: Ki values (nM) Alpha2C, supplement xlsx and text
T3 sequence (P18825 1-462): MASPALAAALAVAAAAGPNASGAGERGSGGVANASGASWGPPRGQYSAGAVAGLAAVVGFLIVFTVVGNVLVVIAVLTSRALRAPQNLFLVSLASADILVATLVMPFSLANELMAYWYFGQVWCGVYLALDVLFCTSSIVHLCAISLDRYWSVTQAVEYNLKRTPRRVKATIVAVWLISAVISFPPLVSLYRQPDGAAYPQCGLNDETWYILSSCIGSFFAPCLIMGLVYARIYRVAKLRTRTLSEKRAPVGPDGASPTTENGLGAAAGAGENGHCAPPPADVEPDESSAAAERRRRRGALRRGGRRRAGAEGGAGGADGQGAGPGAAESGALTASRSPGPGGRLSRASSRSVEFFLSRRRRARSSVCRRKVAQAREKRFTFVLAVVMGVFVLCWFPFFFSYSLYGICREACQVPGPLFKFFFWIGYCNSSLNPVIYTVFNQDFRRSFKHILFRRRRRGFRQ
Excerpt: as §1

[10] = target: DAT (Homo sapiens, UniProt Q01959); assay: PDSP secondary radioligand displacement assay, Ki; type: binding
Chain of DAT (Q01959 whole entry, species assumed): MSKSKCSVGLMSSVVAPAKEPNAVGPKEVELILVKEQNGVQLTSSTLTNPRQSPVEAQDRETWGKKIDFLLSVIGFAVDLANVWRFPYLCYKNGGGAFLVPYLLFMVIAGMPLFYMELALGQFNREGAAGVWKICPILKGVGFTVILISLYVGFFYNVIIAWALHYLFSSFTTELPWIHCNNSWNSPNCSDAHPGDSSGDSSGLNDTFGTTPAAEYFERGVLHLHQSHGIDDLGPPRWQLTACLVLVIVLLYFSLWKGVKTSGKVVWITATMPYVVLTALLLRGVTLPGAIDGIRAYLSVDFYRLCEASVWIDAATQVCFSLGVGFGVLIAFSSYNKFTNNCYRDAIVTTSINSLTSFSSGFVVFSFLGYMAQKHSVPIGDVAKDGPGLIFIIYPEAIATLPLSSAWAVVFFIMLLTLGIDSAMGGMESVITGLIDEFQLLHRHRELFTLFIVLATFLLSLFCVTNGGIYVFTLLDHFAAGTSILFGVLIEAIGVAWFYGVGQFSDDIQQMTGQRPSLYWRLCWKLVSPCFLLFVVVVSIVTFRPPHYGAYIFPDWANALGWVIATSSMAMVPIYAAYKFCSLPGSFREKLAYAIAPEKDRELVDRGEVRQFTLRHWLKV
Excerpt: as §1

[11] = target: H3 (Homo sapiens, UniProt Q9Y5N1); assay: PDSP secondary radioligand displacement assay, Ki; type: binding
Chain of H3 (Q9Y5N1 whole entry): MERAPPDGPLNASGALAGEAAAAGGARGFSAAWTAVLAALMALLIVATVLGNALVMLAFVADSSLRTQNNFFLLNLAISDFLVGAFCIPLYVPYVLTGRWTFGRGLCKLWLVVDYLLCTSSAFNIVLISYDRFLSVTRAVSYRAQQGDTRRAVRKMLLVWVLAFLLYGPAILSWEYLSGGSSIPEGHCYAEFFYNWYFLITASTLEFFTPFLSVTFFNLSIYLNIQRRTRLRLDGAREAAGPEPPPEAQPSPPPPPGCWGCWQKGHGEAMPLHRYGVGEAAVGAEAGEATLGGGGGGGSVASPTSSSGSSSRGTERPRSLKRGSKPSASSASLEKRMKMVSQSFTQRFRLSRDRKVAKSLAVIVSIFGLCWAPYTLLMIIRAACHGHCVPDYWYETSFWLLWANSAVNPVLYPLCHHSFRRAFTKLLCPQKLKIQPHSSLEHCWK
Excerpt: as §1

[12] = target: KOR (Homo sapiens, UniProt P41145); assay: PDSP secondary radioligand displacement assay, Ki; type: binding; settings: supplement xlsx
Chain of KOR (P41145 whole entry): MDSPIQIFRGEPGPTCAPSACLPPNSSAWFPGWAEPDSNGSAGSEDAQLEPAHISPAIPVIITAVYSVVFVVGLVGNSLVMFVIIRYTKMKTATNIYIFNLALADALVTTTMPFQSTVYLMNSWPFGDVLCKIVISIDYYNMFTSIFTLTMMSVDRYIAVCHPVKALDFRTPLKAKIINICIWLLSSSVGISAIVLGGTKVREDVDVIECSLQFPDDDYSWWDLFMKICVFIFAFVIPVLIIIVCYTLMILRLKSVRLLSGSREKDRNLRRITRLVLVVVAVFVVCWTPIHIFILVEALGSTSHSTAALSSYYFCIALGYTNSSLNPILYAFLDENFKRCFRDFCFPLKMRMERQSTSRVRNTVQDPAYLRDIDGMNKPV
Excerpt: as §1

[13] = target: T4, M2 (Homo sapiens, UniProt P08172); assay: PDSP secondary radioligand displacement assay, Ki; type: binding
T4 sequence (P08172 1-466): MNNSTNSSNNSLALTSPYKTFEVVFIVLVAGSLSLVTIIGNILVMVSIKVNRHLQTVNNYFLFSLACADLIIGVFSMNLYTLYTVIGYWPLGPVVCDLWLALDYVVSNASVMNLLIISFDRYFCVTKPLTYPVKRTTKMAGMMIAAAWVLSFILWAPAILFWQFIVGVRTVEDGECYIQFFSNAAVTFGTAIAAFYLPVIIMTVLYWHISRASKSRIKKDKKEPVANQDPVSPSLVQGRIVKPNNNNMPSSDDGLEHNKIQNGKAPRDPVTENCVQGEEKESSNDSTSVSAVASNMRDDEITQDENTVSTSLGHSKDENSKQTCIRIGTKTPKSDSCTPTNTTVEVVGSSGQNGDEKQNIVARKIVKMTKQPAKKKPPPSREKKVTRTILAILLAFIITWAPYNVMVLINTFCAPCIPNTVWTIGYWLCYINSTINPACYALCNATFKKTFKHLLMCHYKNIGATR
Excerpt: as §1

[14] = target: M3 (Homo sapiens, UniProt P20309); assay: PDSP secondary radioligand displacement assay, Ki; type: binding
Chain of M3 (P20309 whole entry): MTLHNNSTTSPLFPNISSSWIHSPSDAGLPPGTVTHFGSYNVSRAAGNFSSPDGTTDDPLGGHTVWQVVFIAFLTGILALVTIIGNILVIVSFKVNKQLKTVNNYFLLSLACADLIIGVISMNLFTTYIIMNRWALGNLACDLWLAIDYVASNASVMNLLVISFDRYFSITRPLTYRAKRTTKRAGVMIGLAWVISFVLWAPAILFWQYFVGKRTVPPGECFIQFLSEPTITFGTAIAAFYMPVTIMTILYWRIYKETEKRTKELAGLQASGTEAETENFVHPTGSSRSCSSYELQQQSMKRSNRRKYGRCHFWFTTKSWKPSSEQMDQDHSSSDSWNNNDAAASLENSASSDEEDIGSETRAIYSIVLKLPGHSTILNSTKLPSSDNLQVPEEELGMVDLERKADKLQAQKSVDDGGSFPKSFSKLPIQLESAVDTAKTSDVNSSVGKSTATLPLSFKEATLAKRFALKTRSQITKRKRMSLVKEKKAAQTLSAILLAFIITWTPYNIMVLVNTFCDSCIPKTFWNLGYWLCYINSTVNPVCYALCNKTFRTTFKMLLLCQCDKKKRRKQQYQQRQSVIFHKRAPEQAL
Excerpt: as §1

[15] = target: NET (Homo sapiens, UniProt P23975); assay: PDSP secondary radioligand displacement assay, Ki; type: binding
Chain of NET (P23975 whole entry): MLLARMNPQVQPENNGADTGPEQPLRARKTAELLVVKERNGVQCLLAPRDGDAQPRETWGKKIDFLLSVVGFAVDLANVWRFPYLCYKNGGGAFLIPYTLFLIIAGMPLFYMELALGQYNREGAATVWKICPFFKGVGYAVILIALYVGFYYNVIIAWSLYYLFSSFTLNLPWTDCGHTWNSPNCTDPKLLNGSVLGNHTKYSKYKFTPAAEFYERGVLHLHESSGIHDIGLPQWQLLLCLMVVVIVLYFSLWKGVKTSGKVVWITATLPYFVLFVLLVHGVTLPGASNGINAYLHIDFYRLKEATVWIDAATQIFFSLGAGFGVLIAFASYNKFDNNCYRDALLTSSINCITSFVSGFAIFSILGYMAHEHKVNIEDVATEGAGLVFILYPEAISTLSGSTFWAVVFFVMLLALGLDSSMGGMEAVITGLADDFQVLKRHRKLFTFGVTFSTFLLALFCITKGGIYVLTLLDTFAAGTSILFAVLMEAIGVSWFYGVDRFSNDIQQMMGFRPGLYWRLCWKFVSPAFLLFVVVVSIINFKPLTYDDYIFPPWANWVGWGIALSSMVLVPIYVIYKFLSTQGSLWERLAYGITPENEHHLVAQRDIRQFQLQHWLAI
Excerpt: as §1

[16] = target: SERT (Homo sapiens, UniProt P31645); assay: PDSP secondary radioligand displacement assay, Ki; type: binding; settings: supplement xlsx
Chain of SERT (P31645 whole entry, species assumed): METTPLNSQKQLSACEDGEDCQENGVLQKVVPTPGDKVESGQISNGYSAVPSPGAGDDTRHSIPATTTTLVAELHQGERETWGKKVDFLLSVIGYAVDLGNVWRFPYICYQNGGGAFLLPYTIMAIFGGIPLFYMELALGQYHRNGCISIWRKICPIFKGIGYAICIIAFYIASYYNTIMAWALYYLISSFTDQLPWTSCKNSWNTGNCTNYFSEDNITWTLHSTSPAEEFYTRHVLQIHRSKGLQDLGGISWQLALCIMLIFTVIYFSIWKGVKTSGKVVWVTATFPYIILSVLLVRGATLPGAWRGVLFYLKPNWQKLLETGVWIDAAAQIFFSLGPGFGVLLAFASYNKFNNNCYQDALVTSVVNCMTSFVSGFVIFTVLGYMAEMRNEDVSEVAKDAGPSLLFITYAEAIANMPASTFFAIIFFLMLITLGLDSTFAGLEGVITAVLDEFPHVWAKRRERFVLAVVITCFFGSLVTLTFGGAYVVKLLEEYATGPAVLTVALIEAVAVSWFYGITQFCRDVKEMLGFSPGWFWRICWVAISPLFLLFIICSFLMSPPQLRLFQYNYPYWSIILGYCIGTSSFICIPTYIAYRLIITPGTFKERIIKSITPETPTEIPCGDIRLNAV
Excerpt: as §1

[17] = target: M1 (Homo sapiens, UniProt P11229); assay: PDSP secondary radioligand displacement assay, Ki; type: binding
Excerpt: as §1

[18] = target: M4 (Homo sapiens, UniProt P08173); assay: PDSP secondary radioligand displacement assay, Ki; type: binding; settings: supplement xlsx
Excerpt: as §1

[19] = target: M5 (Homo sapiens, UniProt P08912); assay: PDSP secondary radioligand displacement assay, Ki; type: binding
Excerpt: as §1

[20] = target: 5-HT2A (Homo sapiens, UniProt P28223); assay: PDSP secondary radioligand displacement assay, Ki; type: binding; settings: supplement xlsx
Excerpt: as §1

[21] = target: H4 (Homo sapiens, UniProt Q9H3N8); assay: PDSP secondary radioligand displacement assay, Ki; type: binding; settings: supplement xlsx
Excerpt: as §1

[22] = target: S2R; set-up: method as in earlier work; settings: ref 30 (Bowen et al., 1995); read-out: affinity at S2R (Ki); cited from earlier work
[23] = target: Alpha1B (Homo sapiens, UniProt P35368); assay: PDSP secondary radioligand displacement assay, Ki; type: binding
Excerpt: as §1

Chain of D2 (P14416 whole entry): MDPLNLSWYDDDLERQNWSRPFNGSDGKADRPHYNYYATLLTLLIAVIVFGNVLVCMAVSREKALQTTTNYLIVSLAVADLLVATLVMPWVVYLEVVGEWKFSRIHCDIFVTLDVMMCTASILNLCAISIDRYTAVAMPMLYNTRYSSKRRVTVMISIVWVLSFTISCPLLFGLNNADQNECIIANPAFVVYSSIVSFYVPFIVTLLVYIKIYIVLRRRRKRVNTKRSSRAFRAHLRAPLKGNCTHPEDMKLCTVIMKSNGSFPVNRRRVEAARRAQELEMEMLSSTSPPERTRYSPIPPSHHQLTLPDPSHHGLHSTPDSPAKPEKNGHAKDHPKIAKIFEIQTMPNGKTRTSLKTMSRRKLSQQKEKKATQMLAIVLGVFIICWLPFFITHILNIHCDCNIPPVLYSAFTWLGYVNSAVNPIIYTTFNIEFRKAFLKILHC

| Compound | Ki [4] | Ki [7] | Ki [9] | Ki [11] | Ki [12] | Ki [13] | Ki [14] | Ki [16] | other results |
| --- | --- | --- | --- | --- | --- | --- | --- | --- | --- |
| CCC1CC2CC3c4c(c5ccccc5n4CC=C(C)C)CCN(C2)C13 (stereo not drawn) [compound 23] | 6440 nM | – | – | – | – | – | – | – | Ki [1]: 2.42 µM; Ki [2]: 0.249 µM; Ki [3]: 1.71 µM |
| CCC1CC2CC3c4[nH]c5cc(Br)ccc5c4CCN(C2)C13 (stereo not drawn) [7c] | 4210 nM | 1.63 µM | 71 nM | 3.32 µM | 1040 nM | 8.03 µM | 1.52 µM | 162 nM | Ki [5]: 7460 nM; Ki [6]: 1400 nM; Ki [8]: 1620 nM; Ki [10]: 0.807 µM; Ki [15]: 1.75 µM |
| CCC1CC2CC3c4[nH]c5cc6c(cc5c4CCN(C2)C13)OCO6 (stereo not drawn) [7f] | – | – | – | 5.41 µM | – | – | – | – | Ki [5]: > 10000 nM |
| c1ccc2c3c([nH]c2c1)C1CC2C[C@H](C4CCOCC4)C1N(CC3)C2 (stereo partly drawn) [7i] | 1810 nM | – | – | – | – | 0.15 µM | 0.0737 µM | 1710 nM | Ki [3]: 0.882 µM; Ki [17]: 0.138 µM; Ki [18]: 37.9 nM; Ki [19]: 0.224 µM |
| CCC1CC2CC3c4[nH]c5cc(C(F)(F)F)ccc5c4CCN(C2)C13 (stereo not drawn) [7e] | 3810 nM | 1.42 µM | 110 nM | 2.29 µM | 1500 nM | – | 1.95 µM | 206 nM | Ki [20]: 1800 nM; Ki [8]: 1650 nM; Ki [21]: 3030 nM; Ki [17]: 4.57 µM |
| CC[C@H]1C[C@H]2C[C@H]3c4[nH]c5ccccc5c4CCN(C2)[C@@H]13 [ibogamine (1), ibogamine, reference compound] | 2460 nM | – | – | – | – | – | 2.46 µM | 272 nM | Ki [22]: 0.137 µM |
| ibogaine [ibogaine (2)] | – | – | – | – | – | – | – | – | Ki [22]: 0.201 µM |
| CCC1CC2CC3c4[nH]c5cc(F)ccc5c4CCN(C2)C13 (stereo not drawn) [7a] | – | 4.1 µM | 623 nM | – | 4770 nM | 2.69 µM | 0.734 µM | 153 nM | Ki [23]: 2.09 µM; Ki [10]: 1.32 µM; Ki [15]: 5.7 µM |
| CC[C@H]1C[C@@H]2C[C@H]3c4[nH]c5cc(OC)ccc5c4CC[N@@](C2)[C@@H]13 [tabernanthine (3), tabernanthine, reference compound] | – | – | – | 2.3 µM | 319 nM | – | – | 1300 nM | Ki [5]: 7660 nM; Ki [22]: 0.194 µM |
| CCC1C[C@H]2CC3c4[nH]c5ccccc5c4CCN(C2=O)C13 (stereo in doubt) [compound 22] | – | – | – | – | – | – | – | 1380 nM | – |
| CCC1CC2CC3c4[nH]c5cc(Cl)ccc5c4CCN(C2)C13 (stereo not drawn) [7b] | 4450 nM | 1.72 µM | 1360 nM | 2.88 µM | 1400 nM | 2.94 µM | 0.811 µM | 177 nM | Ki [20]: 3000 nM; Ki [6]: 1010 nM; Ki [8]: 2360 nM; Ki [15]: 1.79 µM |
| CC(C)[C@H]1CC2CC3c4[nH]c5ccccc5c4CCN(C2)C31 (stereo partly drawn) [7h] | 3130 nM | – | – | – | 995 nM | – | 0.414 µM | 709 nM | Ki [10]: 2.02 µM; Ki [18]: 416 nM; Ki [19]: 1.1 µM |
| C[C@H]1CC2CC3c4[nH]c5ccccc5c4CCN(C2)C31 (stereo partly drawn) [7g] | – | – | – | – | – | – | – | 371 nM | – |
